The values that follow are results of earlier work, collected in US10499664B2, “Fish feed formulation of Hypericum perforatum, Rosamarinus officianalis or a mixture thereof” (UNIVERSIDAD DE SANTIAGO DE CHILE, priority 2015, dated 2019).

Test systems include IL-1β; TNF-α; COX-2.
Holding throughout (details): pre-treatment, inflamed mouse ears

On to `CC(C)c1cc2c(c(O)c1O)[C@@]1(C(=O)O)CCCC(C)(C)[C@@H]1CC2` [carnosic acid], for which, in the data set with IL-1β, the IL-1β gene expression result is “reducing their expression”. In the data set with TNF-α, the TNF-α gene expression entry was “reducing their expression”. For the same molecule, the COX-2 inhibition result with COX-2 is “selectively inhibiting”.
For `CC(C)c1cc2c(c(O)c1O)[C@@]13CCCC(C)(C)[C@@H]1C[C@@H]2OC3=O` [carnosol], the IL-1β gene expression result in the data set on IL-1β is reported as “reducing their expression”. Moreover, the TNF-α gene expression result in the data set with TNF-α is reported as “reducing their expression”. Also, the COX-2 inhibition result with COX-2 is listed as “selectively inhibiting”.
